Laboratory results: publication PMC7503767, “Alkoxyamines Designed as Potential Drugs against Plasmodium and Schistosoma Parasites” (Molecules, 2020)
Marks after values point to notes of the source that are not given here.

Experiments:
Adult S. mansoni = experiment: In vitro antischistosomal activity on adult worms; format: cell-based, Schistosoma mansoni; details: for Mean (±SD) survival time – Adult S. mansoni / Time for the death of 100% worms: 100 µg/mL; for Mean (±SD) survival time – Adult S. mansoni: observation up to 8 h (Table S1)
Excerpt: The NMRI strain of Schistosoma mansoni was used for the experimentations. The parasite was maintained on an albino variety of Biomphalaria glabrata from Brazil (intermediate host) and in Golden Hamsters, Mesocricetus auratus (Janvier Labs, Le Genest-Saint-Isle, France). Detailed methods, for mollusk and hamster infections and for parasite recovery, were previously described.
Adult worms were recovered between 42 and 47 days after infection by hepatic perfusion technique. Twenty to fifty adult worms were disposed in 12-well Falcon® plate containing 2 mL of RPMI 1640 (supplemented with L-glutamine and Hepes 25 mM) and stored in an incubator chamber (37 °C; 5% CO2). Drug preparation started with dissolution of the drug in DMSO to give a 100 mg/mL stock solution. The dilution was complemented with Tween 80 and RPMI in order to obtain the following final ratio dilution: RPMI 1640/Tween 80/DMSO, 1000/0.95/3.8, v/v/v. The drug solution was added to Falcon plates that contained adult worms. The S. mansoni cultures were then incubated with each drug at a final concentration of 100 µg/mL. Positive control was carried out with a solution of praziquantel (Merck KGaA, Darmstadt, Germany) at a concentration of 100 µg/mL. Negative control was carried out with the same RPMI 1640/Tween 80/DMSO solution, but without any drug. Each test was performed in duplicate. Every hour, moving worms were counted in order to define the percentage of survivors. Parasites showing no body contractions during a 30 s observation were considered as dead. Observations were extended to 8 h. Mean survival times (± standard deviation) were calculated for each drug using Kaplan–Meier survival analyses.

[1] = tested on: P. falciparum chloroquine-resistant strain FcB1-Columbia; experiment: Antiplasmodial screen at 10 µM and chemosensitivity assay (SYBR Green I), FcB1-Columbia; format: cell-based, Plasmodium falciparum; details: FcB1-Columbia strain; read-out: IC50 on P. falciparum
[2] = Homolysis of the NO–C bond measured by EPR
Method: Homolysis rate constants kd’ were measured by EPR and estimated using Equation (1) as reported many times in the literature. Further, Ea and kd were estimated using Equation (2). (1) ln([nitroxide]∞−[nitroxide]t/[nitroxide]∞)=−kd·t (2) Ea=−RT ln([…] kd′ )

[3] = adult S. mansoni, observation up to 8 h

| Compound | Mean (±SD) survival time – Adult S. mansoni (Adult S. mansoni) [h] | Time for the death of 100% worms (Adult S. mansoni; [3]) [h] | other results |
| --- | --- | --- | --- |
| CCOP(=O)(OCC)C(N(OC(C)c1ccc(C)cc1)C(C)(C)C)C(C)(C)C (centres unmarked) [(RR/SS)-1s] | > 8 | > 8 | – |
| CC(ON1C(C)(C)CCCC1(C)C)c1cccnc1 (centres unmarked) [9b] | – | 3 | – |
| CCOP(=O)(OCC)[C@@H](N(O[C@H](C)n1cc[n+](C)c1)C(C)(C)C)C(C)(C)C.Cc1ccc(S(=O)(=O)[O-])cc1 (relative stereo) [(RR/SS)-1n] | > 8 | > 8 | – |
| CCOP(=O)(OCC)C(N(OC(C)c1ccncc1)C(C)(C)CO)C(C)(C)C (centres unmarked) [2a] | > 8 | > 8 | – |
| O=C(C1CCCCC1)N1CC(=O)N2CCc3ccccc3C2C1 (centres unmarked) [Praziquantel, praziquantel, reference compound] | 1.0 ± 0.05 | 1 | S. mansoni Mean Survival Time (Adult S. mansoni; adult S. mansoni, single dose 100 µg/mL, observation up to 8 h): 1.0 ± 0.05 h |
| CCOP(=O)(OCC)C(N(OC(C)c1cccnc1)C(C)(C)CO)C(C)(C)C (centres unmarked) [2b] | > 8 | > 8 | – |
| CC(ON1C(C)(C)CC(O)CC1(C)C)c1ccncc1 (centres unmarked) [8a] | > 8 | > 8 | – |
| CC(ON1C(C)(C)CC(O)CC1(C)C)c1cccnc1 (centres unmarked) [8b] | > 8 | > 8 | – |
| CCOP(=O)(OCC)C(N(OC(C)n1cc[n+](C)c1)C(C)(C)C)C(C)(C)C.Cc1ccc(S(=O)(=O)[O-])cc1 (centres unmarked) [(RS/SR)-1n] | > 8 | > 8 | – |
| CCOP(=O)(OCC)C(N(OC(CN)c1ccncc1)C(C)(C)C)C(C)(C)C (centres unmarked) [(RS/SR)-1f] | – | – | IC50 [1]: > 10 µM |
| CCOP(=O)(OCC)C(N(OC(C)c1ccccc1)C(C)(C)C(=O)OC)C(C)(C)C (centres unmarked) [(RS/SR)-5z] | > 8 | > 8 | – |
| CCOP(=O)(OCC)C(N(OC(C)c1ccccn1)C(C)(C)C)C(C)(C)C (centres unmarked) [(RR/SS)-1c] | – | – | IC50 [1]: > 10 µM |
| 4-hydroxy-tetramethylpiperidine-N-oxyl [compound 8] | > 8 | > 8 | – |
| CC(ON1C(C)(C)CCCC1(C)C)c1cc(-c2ccccn2)nc(-c2ccccn2)c1 (centres unmarked) [9F] | – | – | activation energy Ea ([2]; MeOH/water 1:1 pH = 7.4): 131.9 ^k kJ/mol; re-estimated homolysis rate constant kd at 120 °C ([2]; MeOH/water 1:1 pH = 7.4): 0.7 ^k 10^−3 s^−1; half-lifetime t1/2 at 37 °C ([2]; MeOH/water 1:1 pH = 7.4 (aqueous medium)): 385 ^k day; homolysis rate constant kd′ ([2]; MeOH/water 1:1 pH = 7.4, 90 °C): 0.25 ^k 10^−4s^−1; activation energy Ea ([2]; t-BuPh): 131.0 ^k kJ/mol; half-lifetime t1/2 at 37 °C ([2]; t-BuPh): 385 ^k day; re-estimated homolysis rate constant kd at 120 °C ([2]; t-BuPh): 0.95 ^k 10^−3 s^−1; homolysis rate constant kd′ ([2]; t-BuPh, 111 °C): 3.7 ^k 10^−4s^−1 |
